Source: patent publication US11473045B2, “Device for in-vitro modelling in-vivo tissues of organs” (priority 2013, dated 2022)

System: Lung bronchial epithelial cells (16HBEo-)
Description: FIG. 14 illustrates the effects of a physiologic (10% linear), cyclic mechanical strain on the permeability of an epithelial barrier. Lung bronchial epithelial cells (16HBEo-) were seeded at a density of 250'000 cells/cm^2 onto the fibronectin-coated culturing membrane. The cells were allowed to adhere and to grow for 72 h. The cells were exposed to cyclic strain (10% linear, 0.2 Hz) for 19 h, whereas the control was kept at static conditions. […] After 2 h of incubation, the permeability of each molecule was measured with a fluorescence multiplate reader (Tecan Infinite M1000; Ex:460/Em:515 & Ex:553/Em:627).

FITC-sodium was tested, and the “transmembrane permeability of stretched cells compared to control cells in static conditions” value was “significantly increased transmembrane permeability”.
